Measurements as given in publication PMC7560015, “Indoline-6-Sulfonamide Inhibitors of the Bacterial Enzyme DapE” (Antibiotics, 2020).
Read-outs that look alike come from different tables or passages of the source.

Key:
[1] = target: T1, HiDapE (Haemophilus influenzae, UniProt P44514); experiment: ninhydrin-based DapE inhibition assay (N6-methyl-L,L-SDAP substrate); format: biochemical; conditions: for IC50: from three or four % inhibition points, N-Me-SDAP substrate
T1 construct: His6 (cleaved yes); made in house
T1 sequence (P44514 whole entry): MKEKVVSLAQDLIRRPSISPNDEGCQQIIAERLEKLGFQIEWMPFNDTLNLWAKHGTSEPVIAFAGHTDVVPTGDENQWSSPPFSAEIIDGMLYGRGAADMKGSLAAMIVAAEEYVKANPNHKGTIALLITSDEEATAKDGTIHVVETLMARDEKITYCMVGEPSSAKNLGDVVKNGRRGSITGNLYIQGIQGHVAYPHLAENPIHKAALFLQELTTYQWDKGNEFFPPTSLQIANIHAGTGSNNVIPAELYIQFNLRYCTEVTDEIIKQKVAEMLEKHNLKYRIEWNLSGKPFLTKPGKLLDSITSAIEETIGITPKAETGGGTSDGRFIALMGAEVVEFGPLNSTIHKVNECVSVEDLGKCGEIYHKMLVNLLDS
From the text: To conveniently measure the inhibitory potency of test compounds against DapE, we recently developed a ninhydrin-based assay employing the unnatural but well-tolerated substrate N^6-methyl-L,L-SDAP (1b). Enzymatic cleavage of 1b affords primary amine product 3b (Figure 1), which can be quantified spectrophotometrically following treatment with ninhydrin. Importantly, this assay avoids the significant background signal that would be produced by the reaction of the primary amine in native substrate 1a with ninhydrin. […]
DapE inhibition was measured according to the method previously described. In brief, the enzymatic activity of DapE was measured in triplicate at 570 nm by the Ruhemann’s purple complex formed through the reaction of the exposed primary amine and ninhydrin. To 175 µL of 50 mM HEPES (4-(2-hydroxyethyl)-1-piperazineethanesulfonic acid) buffer at pH 7.5 with 5 µL of 1µM DapE stock solution at 30 °C, 20 µL of 10 mM monomethyl SDAP ((2S,6S)-2-(3-carboxypropanamido)-6-(methylamino)heptanedioic acid) TFA salt was added. The reaction was allowed to proceed for 10 min and quenched by heating at 100 °C for 1 min and subsequently cooling on ice for 1 min. To the cooled reaction, 2% ninhydrin reagent in 100% DMSO (final volume 300 µL) was added and subsequently heated to 80 °C for 15 min. This was quenched by placing in ice water for 2 min, and the absorbance of an 80 µL aliquot was read at 570 nm via a microplate reader. These reactions were set as 100% standard enzyme activity of DapE.

[2] = solubility at assay concentration; format: physicochemical; conditions: at 200 μM; insol. = insoluble
From the text: The compounds synthesized along with their DapE inhibitory potencies measured using the N-Me-SDAP substrate are summarized in Table 1. We kept the N-acetyl group as well as the 5-halogen moiety constant in this first series while varying the sulfonamide N-substituent. […] Several derivatives had poor solubility, limiting the ability to test inhibition at higher concentrations.

[3] = target: DapE (Haemophilus influenzae, UniProt P44514); experiment: high-throughput screen of ~33,000 compounds for DapE inhibitors; format: biochemical; conditions: read-out: % inhibition of DapE in high-throughput screen
DapE, sequence (P44514 whole entry): as above
From the text: We were pleased that these two indoline hit structures provided mutual confirmation of one another. Furthermore, indolines are a privileged scaffold in medicinal chemistry, as there are several examples of indoline-containing drugs approved for a variety of treatments: advanced or transitional cell carcinoma of the urothelial tract (vinflunine), glaucoma and severe anticholinergic toxicity (physostigmine), and schizophrenia in adults (lumateperone), or are under investigation, as for benign prostatic hyperplasia (BPH). Furthermore, sulfonamides are pervasive in agrochemicals and in pharmaceuticals across therapeutic areas, and primary sulfonamides have recently been leveraged as versatile intermediates.

[4] = system: DapE from Haemophilus influenza (HiDapE); conditions: competitive inhibitor of HiDapE; cited from earlier work

| SMILES | melting point | IC50 [1] | other results |
| --- | --- | --- | --- |
| COC(=O)CNS(=O)(=O)c1cc2c(cc1Br)CCN2C(C)=O [9e, 1-Acetyl-5-Bromoindolin-6-(Sulfonyl Glycine Methyl Ester)] | 179 to 182 °C |  | DapE inhibitory potency in words [1]: nearly inactive; inhibition at 200 µM [1]: 17% |
| CC(=O)N1CCc2cc(Br)c(S(=O)(=O)NCC(C)C)cc21 [9a, 1-Acetyl-5-Bromo-N-Isobutylindoline-6-Sulfonamide] |  |  | inhibition at 200 µM [1]: 20% |
| CC(=O)N1CCc2cc(Cl)c(S(=O)(=O)N3CCCCC3)cc21 [10c, 1-(5-Chloro-6-(Piperidin-1-Ylsulfonyl)Indolin-1-yl)Ethan-1-One] | 199.7 to 201.4 °C | 44 µM | fold more potent than corresponding 5-bromo derivative ([1]; 10c relative to 9i): ~ 3 × |
| CCN(CC)S(=O)(=O)c1cc2c(cc1Br)CCN2C(C)=O [9n, 1-Acetyl-5-Bromo-N,N-Diethylindoline-6-Sulfonamide] | 195 to 196 °C | 99 µM |  |
| CCCN(CCC)S(=O)(=O)c1cc2c(cc1Br)CCN2C(C)=O [9l, 1-Acetyl-5-Bromo-N,N-Dipropylindoline-6-Sulfonamide] | 118 to 120 °C |  | solubility in the DapE assay [2]: insol.; DapE inhibitory potency in words [1]: significantly less potent; inhibition at 20 µM [1]: 5% |
| COC(=O)[C@H](Cc1ccccc1)NS(=O)(=O)c1cc2c(cc1Br)CCN2C(C)=O [9h, Methyl ((1-Acetyl-5-Bromoindolin-6-yl)Sulfonyl)-L-Phenylalaninate] |  |  | inhibition at 200 µM [1]: 61% |
| CCCN(CCC)S(=O)(=O)c1cc2c(cc1Cl)CCN2C(C)=O [10e, 1-Acetyl-5-Chloro-N,N-Dipropylindoline-6-Sulfonamide] |  | 88 µM |  |
| COCCN(CCOC)S(=O)(=O)c1cc2c(cc1Cl)CCN2C(C)=O [10f, 1-Acetyl-5-Chloro-N,N-bis(2-Methoxyethyl)Indoline-6-Sulfonamide] | 93.2 to 94.4 °C | > 200 µM |  |
| CC(=O)N1CCc2cc(Br)c(S(=O)(=O)NCCC(C)C)cc21 [compound 4, 1-Acetyl-5-Bromo-N-Isopentylindoline-6-Sulfonamide] | 190 to 191 °C | > 200 µM | inhibition at 12 µM ([3]; at 12 μM, arbitrary hit cutoff): > 20%; inhibition at 200 µM ([1]; at 200 μM, single concentration, read-out: % Inhibition): 42% |
| COC(=O)CCNS(=O)(=O)c1cc2c(cc1Br)CCN2C(C)=O [9f, Methyl 3-((1-Acetyl-5-Bromoindoline)-6-Sulfonamido)Propanoate] | 190 to 193 °C | 118 µM |  |
| CC(=O)N1CCc2cc(Br)c(S(=O)(=O)N3CC(C)CC(C)C3)cc21 (stereo not shown) [compound 5] |  |  | inhibition at 12 µM [3]: > 20% |
| CC(=O)N1CCc2cc(Br)c(S(=O)(=O)NC(C)(C)C)cc21 [9d, 1-Acetyl-5-Bromo-N-(Tert-Butyl)Indoline-6-Sulfonamide] |  |  | inhibition at 100 µM [1]: 39% |
| CC(=O)N1CCc2cc(Cl)c(S(=O)(=O)NC3CCCCC3)cc21 [10b, 1-Acetyl-5-Chloro-N-Cyclohexylindoline-6-Sulfonamide] | 230 to 230.5 °C |  | inhibition at 200 µM [1]: 58% |
| CC(=O)N1CCc2cc(Br)c(S(=O)(=O)N3CCCC3)cc21 [9j, 1-Acetyl-5-Bromo-6-(Pyrrolidin-1-Sulfonyl) Indoline] | 238 to 240 °C | 97 µM |  |
| COCCN(CCOC)S(=O)(=O)c1cc2c(cc1Br)CCN2C(C)=O [9m, 1-Acetyl-5-Bromo-N,N-bis(2-Methoxyethyl)Indoline-6-Sulfonamide] | 110 to 111 °C |  | DapE inhibitory potency in words [1]: significantly less potent; inhibition at 100 µM [1]: 26% |
| CC(=O)N1CCc2cc(Br)c(S(=O)(=O)N3CCc4ccccc43)cc21 [9k, 1-Acetyl-5-Bromo-6-(Indolin-1-Sulfonyl) Indoline] | 215 to 218 °C | 86 µM |  |
| CC(=O)N1CCc2cc(Cl)c(S(=O)(=O)N3CCCC3)cc21 [10d, 1-(5-Chloro-6-(Pyrrolidin-1-Ylsulfonyl)Indolin-1-yl)ethan-1-One] |  | 172 µM |  |
| CC(=O)N1CCc2cc(Br)c(S(=O)(=O)NC3CCCCC3)cc21 [9b, 1-Acetyl-5-Bromo-N-Cyclohexylindoline-6-Sulfonamide] | 226 to 228 °C | 162 µM |  |
| C[C@H](CS)C(=O)N1CCC[C@H]1C(=O)O [captopril] |  |  | IC50 [4]: 3.3 µM |
| CC(=O)N1CCc2cc(Br)c(S(=O)(=O)NCc3ccccc3)cc21 [9c, 1-Acetyl-N-Benzyl-5-Bromoindoline-6-Sulfonamide] | 205 to 208 °C |  | inhibition at 200 µM [1]: 56% |
| CC(=O)N1CCc2cc(Cl)c(S(=O)(=O)NCCC(C)C)cc21 [10a, 1-Acetyl-5-Chloro-N-Isopentylindoline-6-Sulfonamide] |  | 54 µM | fold more potent than corresponding 5-bromo derivative ([1]; 10a relative to 4): ~ 5 × |
| COC(=O)[C@@H](NS(=O)(=O)c1cc2c(cc1Br)CCN2C(C)=O)C(C)C [9g, Methyl ((1-Acetyl-5-Bromoindolin-6-yl)Sulfonyl)Valinate] | 190.9 to 191.7 °C | 82 µM |  |
| CC(=O)N1CCc2cc(Br)c(S(=O)(=O)N3CCCCC3)cc21 [9i, 1-Acetyl-5-Bromo-6-(Piperidin-1-Sulfonyl) Indoline] | 212 to 214 °C | 133 µM |  |
